This note sets out measurements from patent US5153180A, “Fluorinated nucleosides and process for treating retrovirus infections therewith” (priority 1990, dated 1992).

Data set [1] concerns K-37 immortalized T-cells. In words: Inhibition of proliferation of K-37 cells. Type of data set: cell-based. The note with it: Homo sapiens, T-cell; dose required to reduce the cell number by 50%, K-37; read-out: CD50 (the source's name). An excerpt: (§1) Originally FTdR was developed as a cytostatic agent (P. Langen et al., Acta biol. med. Germ. 23, 759, 1969; and U.S. Pat. No. 3,775,397) and, therefore, its cytostatic efficacy has been examined in extensive prior studies. […] Ehrlich-mouse-ascites-carcinoma cells (EMAC) represents an exception to that finding, and this is probably connected to its high capability of phosphorylation of FTdR, which is 10 times higher than in human cells. The fast reversibility of the cytostatic effects on EMAC cells was regarded as a special property of this compound (P. Langen et al., Europ. J. Cancer. 14. 349, 1978). The antiproliferative effect of FTdR and FddUrd, and in comparison thereto of N3 -TdR were tested on human cell lines with regard to a possible use in humans. […] When FTdR is compared to N3 -TdR. The effects are very similar, however somewhat lower in each case for N3 -TdR than for FTdR.
(§2) CD50 : inhibitory dose required to reduce the cell number by 50%

Data set [2] concerns HIV. As to the kind of experiment: Inhibition of the cytopathic effect of HIV on MT-4 cells. Type of data set: cell-based. The note with it: Human immunodeficiency virus 1, MT4, 144 h; MT-4 cells, 6 days of incubation; read-out: 50% antiviral dose (ED50). As to the method:
(§3) Under in vitro conditions immortalized T-lymphocytes can be killed within few days by the cytopathic effect of HIV. […] For this purpose about 20,000 MT-4 cells (Harada et al. Science 229, 563 (1985)) Were infected with HIV (titer: 0.04 m.o.i.) and incubated in the presence or absence of varying concentrations of compounds according to formula I, with 10% fetal calf serum (FCS) in 200 μl RPMI medium. After 6 days of incubation the viable cells were counted that were excluded from trypan blue staining.

Data set [3] deals with H9 immortalized T-cells. In words: Inhibition of proliferation of H9 cells. Type of data set: cell-based. Particulars: Homo sapiens, T-cell; dose required to reduce the cell number by 50%, H9; read-out: CD50 (the source's name).
Excerpt: as §1, §2

The nature of data set [4]: in vitro. Particulars: human, mt-4 cells. The procedure: as §3
For data set [5], the system named is K-562 acute myeloic leukemia. As to the kind of experiment: Inhibition of proliferation of K-562 cells. It is filed as cell-based. The note with it: Homo sapiens, K562; dose required to reduce the cell number by 50%, K-562; read-out: CD50 (the source's name).
Excerpt: as §1, §2

Data set [6] deals with REH acute lymphatic leukemia. As to the kind of experiment: Inhibition of proliferation of REH cells. Type of data set: cell-based. The note with it: Homo sapiens, dose required to reduce the cell number by 50%, read-out: CD50 (the source's name).
Excerpt: as §1, §2

The target in data set [7] is T1, cellular DNA polymerase α (Bos taurus, UniProt A0AAA9TD94).
T1 construct: purified from calf thymus; from tissue; host or cells: calf thymus
T1 sequence (A0AAA9TD94 1-1441): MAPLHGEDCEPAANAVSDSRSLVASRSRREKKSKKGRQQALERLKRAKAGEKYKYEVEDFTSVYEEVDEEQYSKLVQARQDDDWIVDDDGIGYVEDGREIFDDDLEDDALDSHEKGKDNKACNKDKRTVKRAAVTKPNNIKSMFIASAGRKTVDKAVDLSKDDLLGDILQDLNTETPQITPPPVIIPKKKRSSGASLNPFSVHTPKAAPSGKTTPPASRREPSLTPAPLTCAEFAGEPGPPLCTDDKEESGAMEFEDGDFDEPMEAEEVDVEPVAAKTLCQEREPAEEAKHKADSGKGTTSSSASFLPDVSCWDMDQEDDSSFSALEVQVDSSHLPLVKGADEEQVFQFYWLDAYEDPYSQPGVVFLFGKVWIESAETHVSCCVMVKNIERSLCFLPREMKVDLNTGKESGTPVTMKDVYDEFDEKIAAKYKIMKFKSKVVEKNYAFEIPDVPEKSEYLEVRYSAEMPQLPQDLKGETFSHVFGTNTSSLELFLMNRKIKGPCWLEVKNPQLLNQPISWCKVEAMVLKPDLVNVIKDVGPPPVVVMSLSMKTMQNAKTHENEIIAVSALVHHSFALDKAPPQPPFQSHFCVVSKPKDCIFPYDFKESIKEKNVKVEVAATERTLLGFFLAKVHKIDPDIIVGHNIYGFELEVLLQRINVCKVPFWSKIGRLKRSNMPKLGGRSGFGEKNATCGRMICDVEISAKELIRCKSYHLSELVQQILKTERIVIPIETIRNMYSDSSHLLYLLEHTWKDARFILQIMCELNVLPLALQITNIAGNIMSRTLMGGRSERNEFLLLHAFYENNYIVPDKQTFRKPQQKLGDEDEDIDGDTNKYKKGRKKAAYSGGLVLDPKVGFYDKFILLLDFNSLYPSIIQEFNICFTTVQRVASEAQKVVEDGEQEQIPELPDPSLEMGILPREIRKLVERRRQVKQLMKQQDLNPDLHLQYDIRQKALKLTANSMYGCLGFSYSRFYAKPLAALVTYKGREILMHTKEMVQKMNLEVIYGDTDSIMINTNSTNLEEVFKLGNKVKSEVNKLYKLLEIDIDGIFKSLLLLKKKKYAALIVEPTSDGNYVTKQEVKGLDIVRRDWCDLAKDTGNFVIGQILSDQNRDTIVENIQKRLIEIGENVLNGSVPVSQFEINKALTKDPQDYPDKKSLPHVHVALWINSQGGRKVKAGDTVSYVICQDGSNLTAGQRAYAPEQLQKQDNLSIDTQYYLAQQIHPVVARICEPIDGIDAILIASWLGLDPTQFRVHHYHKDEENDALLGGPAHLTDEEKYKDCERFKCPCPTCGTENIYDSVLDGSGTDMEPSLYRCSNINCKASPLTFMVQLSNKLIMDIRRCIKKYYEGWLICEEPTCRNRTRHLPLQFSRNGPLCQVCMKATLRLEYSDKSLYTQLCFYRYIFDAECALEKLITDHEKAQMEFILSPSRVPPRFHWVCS
As to the kind of experiment: Effect on cellular DNA polymerase α. It is filed as biochemical. The note with it: enzyme purified from calf thymus; read-out: ID50 cellular polymerase α. The source says:
(§4) The strong inhibiting effect of 3'-fluoro-substituted deoxynucleotides against HIV-reverse transcriptase can be utilized therapeutically only if the cellular DNA polymerases, especially the DNA polymerase α which is required for the replication of the cellular DNA, remain substantially unaffected. […] The ID50 values for the DNA polymerase β responsible for cellular DNA repair vary between 1,8-15 μm. Both enzymes cellular DNA polymerase α and β were purified from calf thymus and tested according to the method of E. Matthes et al., Biomed. Biochim. Acta 44. K63 (1985).

Data set [8] concerns the target T2, cellular DNA polymerase β (Bos taurus, UniProt Q27958).
T2 construct: purified from calf thymus; from tissue; host or cells: calf thymus
As to the kind of experiment: Effect on cellular DNA polymerase β. It is filed as biochemical. Particulars: enzyme purified from calf thymus; read-out: ID50 cellular polymerase β.
Excerpt: as §4

The target in data set [9] is RLV-associated reverse transcriptase. In words: Inhibition of RLV-associated reverse transcriptase. Type of data set: biochemical, Rauscher murine leukemia virus.
For data set [10], the target named is T3, HIV-associated reverse transcriptase (HIV-RT) (Human immunodeficiency virus type 1 group M subtype B, UniProt P04585).
T3 construct: HIV-associated reverse transcriptase (HIV-RT)
As to the kind of experiment: Inhibition of HIV-associated reverse transcriptase (polymerization of artificial templates). It is filed as biochemical. The source says: At first the triphosphates of some compounds according to formula I were investigated for their ability to inhibit the polymerization of artificial templates (such as polyAoligodT and polyColigodG) catalyzed by HIV-associated reverse transcriptase (HIV-RT) according to the method described by A. D. Hoffman et al., Virology 147, 326, 1985. […] FdTTP, FdUTP and FdGTP are among the strongest inhibitors found so far for HIV-RT. In comparison the ID50 for 3'-azidothymidinetriphosphate was estimated under our conditions to be about […].

One may read the CC50 as the concentration giving 50% cytotoxicity. For the molecule `O=c1ccn([C@H]2C[C@H](F)[C@@H](CO)O2)c(=O)[nH]1` [FddUrd, 2'-3'-dideoxy-3'-fluorouridine], the IC50 was greater than 1000 µM in data set [1], greater than 2500 µM in data set [3], greater than 1000 µM in [5] and greater than 9000 µM in data set [6]. Moreover, the EC50 in data set [2] is 0.275 µM. In addition, it took 75 µM to reach half-maximal cytotoxicity in [4] (CC50 at 144 h).
With `Cc1cn([C@H]2C[C@H](F)[C@@H](COP(=O)(O)OP(=O)(O)OP(=O)(O)O)O2)c(=O)[nH]c1=O` [FdTTP, 2'-3'-dideoxy-3'-fluorothymidine-5'-triphosphate], the IC50 is greater than 200 µM in data set [7], 2.2 µM in data set [8] and 0.05 µM in [10] (read-out: ID50 HIV-associated reverse transcriptase). The “ID50 RLV-associated reverse transcriptase” value in data set [9] was found to be 0.5 µM. The “RLV-associated RT less sensitive to the inhibitor than HIV-associated RT” value in data set [9] (ratio of ID50 values) is given as 10 times. Besides, the “mode of action (type of inhibition)” value in data set [10] is “competitive type of inhibition”.
